# Results as given in PMC11078216, “Discovery of potent and selective activity-based probes (ABPs) for the deubiquitinating enzyme USP30” (RSC Chemical Biology, 2024).
# Target: T1, ISOC1 (Homo sapiens, UniProt Q96CN7)
# T1 construct: endogenous in cells; host or cells: HEK293T
# T1 sequence (Q96CN7 1-298): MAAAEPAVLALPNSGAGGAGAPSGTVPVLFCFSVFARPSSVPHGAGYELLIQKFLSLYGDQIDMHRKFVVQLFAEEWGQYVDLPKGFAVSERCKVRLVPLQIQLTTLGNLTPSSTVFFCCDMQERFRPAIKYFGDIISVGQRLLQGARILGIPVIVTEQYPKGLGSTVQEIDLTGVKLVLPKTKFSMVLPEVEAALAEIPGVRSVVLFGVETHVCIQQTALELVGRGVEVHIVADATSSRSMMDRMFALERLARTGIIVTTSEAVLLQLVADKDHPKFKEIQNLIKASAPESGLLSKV
# Test: ABPP chemical proteomics (LC-MS/MS) in HEK293T cells
# Type: cell-based
# Experimental: To explore the selectivity of IMP-2587 and IMP-2586 across the whole proteome, we performed quantitative activity-based protein profiling (ABPP) in HEK293T cells following treatment with IMP-2587 or IMP-2586 (Fig. 3a). After ABP incubation, cells were lysed, and probe-labelled proteins were ligated to biotinylated capture reagents.[27] […] USP30 was outcompeted by corresponding parent inhibitors for each ABP (Fig. 5b and d and Tables S3 and S5, ESI ^†), confirming the high potency and rapid engagement of IMP-2587 and IMP-2586 in cells. […] DESI1 and DESI2 are small ubiquitin-related modifier (SUMO) proteases,[3,29–32] and IMP-2587 and IMP-2586 may offer a starting point for future development of DESI ABPs. […]
# d) Live cell probe incubation, lysate click chemistry and precipitation 6-well HEK293T cells were incubated with media containing compounds ABP 2 and ABP 4 at indicated concentrations for 1 h at 37 °C. The cells were washed with PBS and lysed with lysis buffer (50 μL (1% (v/v) Triton X-100, 0.1% (w/v) sodium dodecyl sulfate (SDS), EDTA-free complete protease inhibitor cocktail (1×, Roche) in PBS on ice for 10 min. The lysates were scraped and transferred to corresponding Lo-Bind Eppendorfs. Each lysate was sonicated for 1 minute, and the samples centrifuges at 5,000 x g at 4 °C for 5 minutes to pellet insoluble cellular debris. The supernatant was collected, and protein concentration was determined using the DC Protein Assay (Bio-Rad) as per manufacturer’s instructions, and normalised to lowest concentrated sample (e.g. 1 mg/mL, using lysis buffer). The following “click mixture” was prepared separately, preparing 6 μL for every 100 μL of […]
# Capture reagent (AzRB/AzT for ABP 2, YnT/YnB for ABP 4 10 mM in DMSO, 1 vol; final concentration […]
# CuSO4 (50 mM in water, 2 vol; final concentration in reaction 1 mM)
# TCEP (50 mM in water, 2 vol; final concentration in reaction 1 mM)
# TBTA (10 mM in DMSO, 1 vol; final concentration in reaction 100 µM)
# The click mixture was vortexed and incubated at room temperature for 2 min before 6 μL of the mixture was added to every 100 μL of lysate. The reaction mixtures were shaken at room temperature for 1 h before being quenched with EDTA (500 mM in H2O) to a final concentration of 10 mM.
# Proteins were precipitated by adding H2O (1 vol), MeOH (2 vol) and CHCl3 (0.5 vol), vortexing briefly then centrifuging at 17,000 × g for 5 min. The top H2O/MeOH layer was discarded and the middle layer of protein pellet and lower CHCl3 layer retained. The suspension was washed with MeOH (300 μL), and sonicated to break up the pellet. The proteins were pelleted by centrifugation at 10,000–17000 × g for 5–10 min or until a compact pellet was formed. The protein pellet was washed once more with MeOH (1 mL). The pellet was resuspended by sonicating and completely dissolving in 1% (w/v) SDS in PBS (to 5 mg/mL protein) before being made up to 1 mg/mL protein with PBS. […]
# f) Neutravidin biotin enrichment (Affinity pull-down)
# Click chemistry and precipitation steps were carried out as described in section 3.2.d, on at least 400ug of protein per sample. The pellet was resuspended by sonicating and completely dissolving in 1% (w/v) SDS in HEPES 50 mM pH 8.0, before being made up to 1 mg/mL protein with HEPES 50 mM pH 8.0 to […]
# achieve a final concentration of 0.2% SDS. 20uL of each samples was collected as TL (Total lysate) samples. Pull down of biotinylated proteins was achieved by incubating samples with pre-equilibrated (3x 1 mL washes with 0.2% (w/v) SDS in HEPES 50 mM pH 8 buffer) Pierce™ NeutrAvidin™ Agarose beads for 3 hours at room temperature. NeutrAvidin™ Agarose beads were used in ratio of 1 μL bead resin per 10ug of protein sample. The beads were subsequently washed by moderate shaking for 10 seconds then briefly pelleting by table-top centrifuge then vacuum aspirating the supernatant with fine-end pipette tips (to not disturb the agarose) after collecting 20 µL supernatant as SN (supernatant […]
# ) samples. […]
smiles,measurement,setting,value
"N#CN1CC[C@@H](NC(=O)c2cc(-c3ccccc3Oc3ccccc3)n[nH]2)C1 [compound 3, reference compound]",Difference (log2 fold change of enrichment),"compound 3 out-competition with IMP-2586 labelling, HEK293T (Table S5, Fig.5d)",-1.80
C#Cc1cccc(-c2cc(NC(=O)CC3CCN(C#N)C3)on2)c1 (stereo not shown) [IMP-2587],Difference (log2 fold change of enrichment),"IMP-2587 labelling vs DMSO, 30 nM, 10 min, HEK293T (Table S2, Fig.5a)",4.06
N#CN1CC[C@@H](NC(=O)c2cc(-c3ccccc3Oc3ccc(N=[N+]=[N-])cc3)n[nH]2)C1 [IMP-2586],Difference (log2 fold change of enrichment),"IMP-2586 labelling vs DMSO, 30 nM, 10 min, HEK293T (Table S4, Fig.5c)",1.71
"N#CN1CC[C@H](CC(=O)Nc2cc(-c3cccc(Cl)c3)no2)C1 [compound 1, reference compound]",Difference (log2 fold change of enrichment),"compound 1 out-competition with IMP-2587 labelling, HEK293T (Table S3, Fig.5b)",-3.50
